Source: US5817640A (Gensia Pharmaceuticals, priority 1995, dated 1998)

Tested on: patients undergoing coronary artery bypass graft (CABG) surgery
Test: Incidence of MI and combined clinical outcome by plasma level of AICA riboside, Phase 3
Type: in vivo, human
Excerpt: The data in Table 13 reflect diagnosis of MI by both ECG and CK-MB (as described above with respect to Table 12).

[1] = AICA riboside plasma level <0.25 μg/ml, n=209
[2] = AICA riboside plasma level <0.25 μg/ml, n=211
[3] = plasma level 0.25-2.00 μg/ml, n=83
[4] = plasma level 0.25-2.00 μg/ml, n=89
[5] = plasma level 2.00-3.00 μg/ml, n=114
[6] = plasma level 2.00-3.00 μg/ml, n=116
[7] = plasma level 3.00-4.00 μg/ml, n=44
[8] = plasma level 4.00-5.00 μg/ml, n=61
[9] = plasma level 5.00-6.00 μg/ml, n=49
[10] = plasma level 5.00-6.00 μg/ml, n=50

In the case of `NC(=O)c1ncn([C@@H]2O[C@H](CO)[C@@H](O)[C@H]2O)c1N` [AICA riboside, 5-amino-1-β-D-ribofuranosyl-imidazole-4-carboxamide], the “Incidence of myocardial infarction” value [1] is reported as 4.3%, the “Myocardial infarction, number of patients” value [1] is reported as 9 patients and the “Combined clinical outcome, number of patients” value [2] is reported as 29 patients. The “Incidence of combined clinical outcome” value [2] was 13.7%, the “Most effective plasma level of AICA riboside” value (from Table 13) was 3 to 6 µg/mL and the “Incidence of myocardial infarction” value [3] was 2.4%. The “Myocardial infarction, number of patients” value [3] was 2 patients, the “Combined clinical outcome, number of patients” value [4] was 9 patients and the “Incidence of combined clinical outcome” value [4] was 10.1%. The “Incidence of myocardial infarction” value [5] was 4.4%, the “Myocardial infarction, number of patients” value [5] was 5 patients and the “Combined clinical outcome, number of patients” value [6] was 11 patients. For the same molecule, the “Incidence of combined clinical outcome” value [6] was 9.5%, the “Combined clinical outcome, number of patients” value [7] was 3 patients and the “Incidence of combined clinical outcome” value [7] was 6.8%. The “Incidence of myocardial infarction” value [7] was 2.3%, the “Myocardial infarction, number of patients” value [7] was 1 patients and the “Combined clinical outcome, number of patients” value [8] was 2 patients. The “Incidence of combined clinical outcome” value [8] was 3.3%, the “Myocardial infarction, number of patients” value [8] was 0 patients and the “Incidence of myocardial infarction” value [9] was 4.1%. The “Myocardial infarction, number of patients” value [9] was 2 patients, the “Combined clinical outcome, number of patients” value [10] was 3 patients and the “Incidence of combined clinical outcome” value [10] was 6.0%. The “Incidence of myocardial infarction” value (plasma level >6.00 μg/ml, n=44) was 2.3%, the “Myocardial infarction, number of patients” value (plasma level >6.00 μg/ml, n=44) was 1 patients and the “Combined clinical outcome, number of patients” value (plasma level >6.00 μg/ml, n=46) was 4 patients. The “Incidence of combined clinical outcome” value (plasma level >6.00 μg/ml, n=46) was 8.7%.
